Results as given in paper PMC8247773, “Benzohydrazide and Phenylacetamide Scaffolds: New Putative ParE Inhibitors” (Frontiers in Bioengineering and Biotechnology, 2021).
≈ marks a conversion by molar mass, not a printed value. Where two headings read alike, the source gives them in different places.

How the values were obtained:
[1] = system: Salmonella typhi (NCIM 2501); parameters: method as in Yele et al., 2020, 2021; settings: ref Yele et al., 2020, 2021; cited from earlier work
[2] = system: Klebsiella pneumonia (NCIM 2706); parameters: method as in Yele et al., 2020, 2021; settings: ref Yele et al., 2020, 2021; cited from earlier work
[3] = system: Pseudomonas aeruginosa (NCIM 2036); parameters: method as in Yele et al., 2020, 2021; settings: ref Yele et al., 2020, 2021; cited from earlier work
[4] = system: Bacillus subtilis (NCIM 2545); parameters: method as in Yele et al., 2020, 2021; settings: ref Yele et al., 2020, 2021; cited from earlier work
[5] = system: Mycobacterium tuberculosis (NCIM 2984); parameters: method as in Yele et al., 2020, 2021; settings: ref Yele et al., 2020, 2021; cited from earlier work
[6] = system: Staphylococcus aureus (NCIM 5022); parameters: method as in Yele et al., 2020, 2021; settings: ref Yele et al., 2020, 2021; cited from earlier work
[7] = system: Escherichia coli (NCIM 2065); test: Minimum bactericidal concentration (MBC); format: cell-based; settings: E. Coli (NCIM 2065); for MBC/MIC: ratio ≤2 bactericidal, ≥4 tolerance
Description: (§1) MBC can be defined as the minimum concentration of a compound required to kill the bacteria over a fixed period under precise conditions. […] Colonies were counted, and colony forming unit (CFU) per milliliter was calculated.

[8] = system: Escherichia coli (NCIM 2065); test: Antibacterial susceptibility test, microbroth dilution MIC; format: cell-based; settings: E. Coli (NCIM 2065), mean ± SD
[9] = system: Staphylococcus epidermis (NCIM 2493); parameters: method as in Yele et al., 2020, 2021; settings: ref Yele et al., 2020, 2021; cited from earlier work
[10] = system: MRSA (NCIM 5021); test: Antibacterial susceptibility test, microbroth dilution MIC; format: cell-based, methicillin-resistant Staphylococcus aureus; settings: mean ± SD
[11] = target: T1, E. coli ParE enzyme (Escherichia coli, UniProt P20083); test: E. coli ParE ATPase enzyme inhibition assay (ProFoldin kit, malachite green); format: biochemical; settings: ATPase activity, mean ± SD (n = 3)
T1 construct: purchased ProFoldin, Hudson, United States
T1 sequence (P20083 whole entry): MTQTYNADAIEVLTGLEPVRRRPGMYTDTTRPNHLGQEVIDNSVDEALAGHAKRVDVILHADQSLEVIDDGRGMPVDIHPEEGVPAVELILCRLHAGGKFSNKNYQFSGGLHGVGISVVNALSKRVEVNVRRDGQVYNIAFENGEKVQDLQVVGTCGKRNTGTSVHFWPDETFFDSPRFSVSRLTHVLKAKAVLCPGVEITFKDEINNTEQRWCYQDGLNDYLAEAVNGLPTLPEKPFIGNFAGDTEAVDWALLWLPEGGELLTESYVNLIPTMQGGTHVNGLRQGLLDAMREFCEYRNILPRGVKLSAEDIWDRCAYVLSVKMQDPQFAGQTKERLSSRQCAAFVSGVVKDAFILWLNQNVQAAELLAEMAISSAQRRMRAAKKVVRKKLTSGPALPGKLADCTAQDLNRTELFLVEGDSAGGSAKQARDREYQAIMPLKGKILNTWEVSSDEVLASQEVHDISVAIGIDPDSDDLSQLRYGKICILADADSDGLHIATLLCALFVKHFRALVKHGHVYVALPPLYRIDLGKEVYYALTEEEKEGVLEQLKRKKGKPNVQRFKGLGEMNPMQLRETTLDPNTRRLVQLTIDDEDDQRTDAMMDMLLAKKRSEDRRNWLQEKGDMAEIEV
T1 sequence (P0AFI2 whole entry, further chain): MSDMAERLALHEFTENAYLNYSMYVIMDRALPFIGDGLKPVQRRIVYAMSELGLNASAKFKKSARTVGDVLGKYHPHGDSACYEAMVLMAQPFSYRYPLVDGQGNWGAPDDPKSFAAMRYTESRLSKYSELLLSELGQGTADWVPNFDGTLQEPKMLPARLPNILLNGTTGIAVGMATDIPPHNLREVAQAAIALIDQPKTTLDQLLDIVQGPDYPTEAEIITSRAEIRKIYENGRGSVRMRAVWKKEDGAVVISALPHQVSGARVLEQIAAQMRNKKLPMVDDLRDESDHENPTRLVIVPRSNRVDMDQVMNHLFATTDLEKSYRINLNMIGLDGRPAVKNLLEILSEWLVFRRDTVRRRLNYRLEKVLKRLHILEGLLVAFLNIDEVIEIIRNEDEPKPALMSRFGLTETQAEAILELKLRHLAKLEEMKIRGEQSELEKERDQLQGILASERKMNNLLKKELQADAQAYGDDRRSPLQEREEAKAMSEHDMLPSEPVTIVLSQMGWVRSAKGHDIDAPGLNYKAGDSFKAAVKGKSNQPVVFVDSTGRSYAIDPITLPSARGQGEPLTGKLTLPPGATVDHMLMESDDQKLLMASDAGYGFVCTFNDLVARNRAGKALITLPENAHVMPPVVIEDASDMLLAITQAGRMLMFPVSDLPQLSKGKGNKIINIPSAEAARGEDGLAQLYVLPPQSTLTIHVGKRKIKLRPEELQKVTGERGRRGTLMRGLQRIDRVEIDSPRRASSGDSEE
Description: The assay was performed as per the standard protocol provided by the ProFoldin. […] ParE hydrolyzes ATP as the source of molecular energy to perform decatenation reactions. Fluoroquinolones and aminocoumarins usually block ATPase activity to hinder the biological activities of topoisomerase II. Thus, the topoisomerase ATPase assay can be used for high-throughput screening of topoisomerase inhibitors. The ATPase activity of the E. coli ParE enzyme was based on the detection of inorganic phosphate produced by the hydrolysis of ATP in the presence of DNA. The phosphate is detected using a microplate reader at an absorbance wavelength of 650 nm. The selected compounds were tested for the inhibition of ATPase activity of ParE enzyme. […] The reaction mixture was incubated for 1 h at 37°C and then quenched with 45 μL of Dye. Incubate for 5 min, and the absorbance was measured at 650 nm. The IC50 values were determined from the absorbance readings using no enzyme and no compound controls. They were calculated using the non-linear regression curve fit method.

[12] = system: MRSA (ATCC43300); test: Antibacterial susceptibility test, microbroth dilution MIC; format: cell-based, methicillin-resistant Staphylococcus aureus; settings: mean ± SD
[13] = system: MRSA (ATCC43300); test: Minimum bactericidal concentration (MBC); format: cell-based, methicillin-resistant Staphylococcus aureus
Description: as §1

[14] = system: MRSA (NCIM 5021); test: Minimum bactericidal concentration (MBC); format: cell-based, methicillin-resistant Staphylococcus aureus
Description: as §1

[15] = system: Escherichia coli (NCIM 2567); parameters: method as in Yele et al., 2020, 2021; settings: ref Yele et al., 2020, 2021; cited from earlier work
[16] = In vitro cytotoxicity MTT assay; settings: African green monkey, Vero cells
[17] = system: preformed E. coli biofilm (NCIM 2065); test: E. coli antibiofilm activity (crystal violet); format: cell-based, Escherichia coli; settings: 10× MIC, 24 h
[18] = Staphylococcus aureus, read-out: Minimum inhibitory concentration

Compound	Minimum inhibitory concentration (MIC) S. t [1]	Minimum inhibitory concentration (MIC) K. p [2]	Minimum inhibitory concentration (MIC) P. a [3]	Minimum inhibitory concentration (MIC) B. s [4]	Minimum inhibitory concentration (MIC) M. t [5]	Minimum inhibitory concentration (MIC) S. a [6]	MBC [7] [µg/mL]	MBC/MIC [7]	Minimum inhibitory concentration [8] [µg/mL]	Minimum inhibitory concentration (MIC) S. e [9]	Minimum inhibitory concentration [10] [µg/mL]	IC50 against E. coli ParE enzyme [11] [µg/mL]	Minimum inhibitory concentration [12] [µg/mL]	MBC [13] [µg/mL]	MBC/MIC [13]	MBC [14] [µg/mL]	MBC/MIC [14]	Minimum inhibitory concentration (MIC) E. c [15]	further results
O=C(COc1ccccc1NC(=O)CCl)Nc1ccccc1 [Compound 9]	2.35	3.81	3.35	4.42	8.65	1.52	3.68 ± 0.29 (≈ 11.5 µM)	2	1.64 ± 0.10 (≈ 5.14 µM)	0.98	1.71 ± 0.16 (≈ 5.36 µM)	2.80 (≈ 8.78 µM)	1.75 ± 0.21 (≈ 5.49 µM)	6.29 ± 0.08 (≈ 19.7 µM)	4	4.70 ± 0.41 (≈ 14.7 µM)	3	4.25	
Cc1ccc(C(=O)NNC(=O)COc2ccccc2NC(=O)CCl)cc1 [Compound 12]	1.98	0.67	1.45	3.72	3.21	3.12	0.86 ± 0.03 (≈ 2.29 µM)	1	0.86 ± 0.03 (≈ 2.29 µM)	2.35	2.65 ± 0.46 (≈ 7.05 µM)	2.34 (≈ 6.23 µM)	0.96 ± 0.14 (≈ 2.55 µM)	0.96 ± 0.14 (≈ 2.55 µM)	1	4.4 ± 0.15 (≈ 11.7 µM)	2	1.26	
Cc1ccc(C(=O)NNC(=O)COc2ccc3ccccc3c2)cc1 [Compound 22]	0.77	0.81	0.82	3.63	0.89	1.16	0.89 ± 0.01 (≈ 2.66 µM)	1	0.89 ± 0.01 (≈ 2.66 µM)	1.04	0.90 ± 0.04 (≈ 2.69 µM)	1.01 (≈ 3.02 µM)	0.76 ± 0.06 (≈ 2.27 µM)	0.76 ± 0.06 (≈ 2.27 µM)	1	0.90 ± 0.04 (≈ 2.69 µM)	1	1.23	
O=C(CSc1nc2ccccc2s1)Nc1ccc(C(=O)O)cc1[N+](=O)[O-] [Compound 25]		1.86	2.60	1.72	5.17	0.85		3	0.72 ± 0.05 (≈ 1.85 µM)	0.79							3	3.86	MBC ([7]; Escherichia coli, NCIM2065, read-out: MBC): 7.09 ± 0.02 µg/mL (≈ 18.2 µM); MIC ([8]; Escherichia coli, NCIM2065, read-out: Minimum inhibitory concentration): 0.72 µg/mL (≈ 1.85 µM); MIC [10, 18]: 0.86 ± 0.13 µg/mL (≈ 2.21 µM); CC50 at 48 h [16]: 194 µg/mL (≈ 498 µM); IC50 ([11]; read-out: IC50 against E. coli ParE enzyme (converted)): 0.719 µM; MIC [12, 18]: 1.11 ± 0.12 µg/mL (≈ 2.85 µM); MBC ([14]; Staphylococcus aureus, read-out: MBC): 8.37 ± 0.17 µg/mL (≈ 21.5 µM)
CC1(C)S[C@@H]2[C@H](NC(=O)[C@H](N)c3ccccc3)C(=O)N2[C@H]1C(=O)O [ampicillin]																			reduction in biofilm [17]: 63%
